Assay results published in patent US20240343732A1, “COMPOUNDS FOR DEGRADATION OF CYCLIN-DEPENDENT KINASE 7(CDK7)” (QURIENT CO., LTD., priority 2021, published 2024).

Columns and labels:
CDK1 = molecular target: T1, CDK1 (Homo sapiens, UniProt P06493); assay: Binding assay (FRET, LanthaScreen Eu, Tracer236) for CDK1; details: for IC50: read-out: CDK1 IC50 (enzyme binding assay)
T1 construct: His; purchased Invitrogen PR4768C
Method: (§1) Inhibition activity of compound to CDK7 kinase was tested in a binding assay which was applied to the FRET (fluorescence resonance energy transfer) principle from the europium (Eu) donor fluorophore to the acceptor fluorophore on the kinase tracer. Test compounds were made to 1.125 mM of compound solution, and then this compound solution 4-fold serial diluted in 8 steps using an automated liquid handler (JANUS™, PerkinElmer). 80 nL/well of each diluted compound solution was added into the 384-well plate (Greiner, Cat #784075) first and 7.5 ul/well of working solution [5 nM of CDK7/CycH/MNAT1 (Invitrogen, Cat #PR6749B), 4 nM of Biotin anti-His Tag Antibody (Invitrogen, Cat #PV6090), and LanthaScreen® Eu-Streptavidin (Invitrogen, Cat #PV6025)] was added. After mixing the solution well, the same volume with the working solution of Tracer236 (Invitrogen, Cat #PV5592) was added into each well in the plate. The plate was incubated for 60 minutes at room temperature and then all the fluorescence were measured using Envision leader (Perkin Elmer, USA) [Laser as excitation light; […] as the first and the second emission filter]. Data was analysed using XL Fit software.
(§2) All of the synthesized compounds were screened in the above-mentioned assay procedure. To identify the inhibition activity of compounds for other CDKs including CDK1 (Invitrogen, Cat #PR4768C), CDK2 (Invitrogen, Cat #PR4448B) and CDK5 (Invitrogen, Cat #PR8543B) were tested using the same protocol under reasonable concentration of Tracer236 and kinases for each assay. The formula for the assay buffer summarized in below table.

CDK2 = molecular target: T2, CDK2 (Homo sapiens, UniProt P24941); assay: Binding assay (FRET, LanthaScreen Eu, Tracer236) for CDK2; details: for IC50: read-out: CDK2 IC50 (enzyme binding assay)
T2 construct: His; purchased Invitrogen PR4448B
Method: as §1, §2

CDK5 = molecular target: T3, CDK5 (Homo sapiens, UniProt Q00535); assay: Binding assay (FRET, LanthaScreen Eu, Tracer236) for CDK5; details: for IC50: read-out: CDK5 IC50 (enzyme binding assay)
T3 construct: His; purchased Invitrogen PR8543B
Method: as §1, §2

CDK7/CycH/MNAT1 = molecular target: T4, CDK7/CycH/MNAT1 (Homo sapiens, UniProt P50613); assay: Binding assay (FRET, LanthaScreen Eu, Tracer236) for CDK7; details: read-out: CDK7 IC50 (enzyme binding assay)
T4 construct: His; purchased Invitrogen PR6749B
Method: as §1, §2

CDK7 protein = molecular target: T5, CDK7 protein (Homo sapiens, UniProt P50613); assay: Western blot assay for CDK7 protein degradation in A2780 cells; format: cell-based; details: 24 hours; for DC50: read-out: Compound concentration that caused 50% CDK7 protein degradation in A2780 cells (DC50);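 on all read-outs here: A is DC50 up to 100 nM B is 100 to 1000 nM C is above 1000 nM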
T5 construct: To verify endogenous CDK7 protein degradation; endogenous in cells; host or cells: A2780 (ECACC 93112519)
Method: Human ovarian cancer cell line, A2780 (Cat #93112519) was obtained from ECACC. Cells were grown in RPMI-1640 media (Invitrogen, Cat #22400105) supplemented with 10% FBS (Hyclone, Cat #SH30084.03) and 1% penicillin/streptomycin (Hyclone, Cat #SV30010) and cultured at 37° C., 5% Co2 in a humidified chamber. All cell lines were routinely tested for mycoplasma.
To verify endogenous CDK7 protein degradation upon treatment of CDK7-specific degrader, the western blot assay was conducted a 24 hours' time period. 6×10^5 cells/well of A2780 cells were plated in 6-well plate. After 24 hours, the cells were treated with various concentrations of the compound corresponding range. DMSO solvent without compound served as a control and final DMSO concentration was not to exceed 0.1% of total volume. After 24 hours of incubation at 37° C., 5% Co2 incubator, cells were collected and lysed with 60 ul of lysis buffer. Collected lysates were incubated for 30 min on ice and collect supernatant through centrifugation at 12,000 rpm for 10 min at 4° C. The protein in lysates were quantified with BCA protein quantification kit (Pierce, Cat #23227) following manufacture's protocol. Cell lysates were diluted into 1 ug/ul of concentration with lysis buffer. 20 ug of protein was loaded to each well of 4˜12% Bis-Tris gel (Invitrogen, Cat #NP0336BOX) with MOPS running buffer (Invitrogen, Cat #NP0001). The proteins were transferred from gel to membrane and incubated with primary antibody as followed at 4° C. overnight; CDK7 (CST, Cat #2090S) and β-actin (Santa Cruz, Cat #sc-47778) 1:20,000. The signals were developed and acquired with ImageQuant™ LAS 4000.

T1 sequence (P06493 whole entry): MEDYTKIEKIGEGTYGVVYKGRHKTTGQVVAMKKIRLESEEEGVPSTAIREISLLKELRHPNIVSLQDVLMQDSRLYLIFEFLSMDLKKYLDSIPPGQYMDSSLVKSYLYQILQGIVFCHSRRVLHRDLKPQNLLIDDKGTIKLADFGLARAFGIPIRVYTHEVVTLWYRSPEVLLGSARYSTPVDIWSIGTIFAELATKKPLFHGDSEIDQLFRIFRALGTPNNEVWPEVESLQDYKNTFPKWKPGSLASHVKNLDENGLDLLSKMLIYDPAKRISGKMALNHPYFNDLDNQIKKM
T1 sequence (P14635 whole entry partner): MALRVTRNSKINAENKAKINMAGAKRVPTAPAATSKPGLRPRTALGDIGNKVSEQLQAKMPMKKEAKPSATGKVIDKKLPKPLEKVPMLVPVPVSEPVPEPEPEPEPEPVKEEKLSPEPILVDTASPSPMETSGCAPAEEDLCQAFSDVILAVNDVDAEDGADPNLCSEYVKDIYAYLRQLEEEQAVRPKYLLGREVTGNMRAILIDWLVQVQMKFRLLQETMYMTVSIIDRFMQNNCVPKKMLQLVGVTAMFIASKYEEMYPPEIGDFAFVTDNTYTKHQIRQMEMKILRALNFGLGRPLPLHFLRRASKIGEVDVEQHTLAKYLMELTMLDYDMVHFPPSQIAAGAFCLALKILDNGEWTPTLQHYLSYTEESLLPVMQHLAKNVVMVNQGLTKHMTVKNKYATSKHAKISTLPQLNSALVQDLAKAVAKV
T3 sequence (Q00535 whole entry): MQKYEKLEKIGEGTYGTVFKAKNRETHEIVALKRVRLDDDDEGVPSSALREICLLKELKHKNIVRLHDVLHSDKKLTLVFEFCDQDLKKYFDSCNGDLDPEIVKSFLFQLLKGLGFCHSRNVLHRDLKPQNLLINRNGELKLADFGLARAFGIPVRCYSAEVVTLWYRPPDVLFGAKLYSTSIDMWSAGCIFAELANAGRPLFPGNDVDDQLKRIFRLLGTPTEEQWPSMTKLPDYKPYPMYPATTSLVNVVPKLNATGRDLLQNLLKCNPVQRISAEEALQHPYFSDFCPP
T3 sequence (Q15078 99-307 partner limits assumed): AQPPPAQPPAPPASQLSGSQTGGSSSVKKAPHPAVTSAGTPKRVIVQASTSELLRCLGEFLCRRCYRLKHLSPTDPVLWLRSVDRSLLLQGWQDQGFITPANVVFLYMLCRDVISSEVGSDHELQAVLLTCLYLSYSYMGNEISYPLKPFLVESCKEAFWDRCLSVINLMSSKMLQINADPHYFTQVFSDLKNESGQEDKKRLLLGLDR
T4 sequence (P50613 whole entry): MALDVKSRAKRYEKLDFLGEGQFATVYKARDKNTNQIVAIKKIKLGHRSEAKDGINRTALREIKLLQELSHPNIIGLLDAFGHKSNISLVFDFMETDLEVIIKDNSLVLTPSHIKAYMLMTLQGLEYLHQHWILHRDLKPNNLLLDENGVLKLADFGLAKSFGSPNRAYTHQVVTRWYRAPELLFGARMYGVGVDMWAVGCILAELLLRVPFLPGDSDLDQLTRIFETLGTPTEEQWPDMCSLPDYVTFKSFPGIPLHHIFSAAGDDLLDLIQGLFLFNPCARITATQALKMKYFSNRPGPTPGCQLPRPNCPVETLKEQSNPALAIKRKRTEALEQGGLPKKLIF
T4 sequence (P51946 whole entry partner): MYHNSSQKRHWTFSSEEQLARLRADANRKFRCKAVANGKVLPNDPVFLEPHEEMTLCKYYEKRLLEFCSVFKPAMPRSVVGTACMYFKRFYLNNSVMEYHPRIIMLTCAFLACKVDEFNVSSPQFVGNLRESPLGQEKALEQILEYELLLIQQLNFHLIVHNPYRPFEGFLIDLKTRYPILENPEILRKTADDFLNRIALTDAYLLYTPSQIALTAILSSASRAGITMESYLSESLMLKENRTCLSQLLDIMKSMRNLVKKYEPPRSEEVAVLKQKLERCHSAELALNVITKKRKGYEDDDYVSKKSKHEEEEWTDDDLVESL
T4 sequence (P51948 whole entry partner): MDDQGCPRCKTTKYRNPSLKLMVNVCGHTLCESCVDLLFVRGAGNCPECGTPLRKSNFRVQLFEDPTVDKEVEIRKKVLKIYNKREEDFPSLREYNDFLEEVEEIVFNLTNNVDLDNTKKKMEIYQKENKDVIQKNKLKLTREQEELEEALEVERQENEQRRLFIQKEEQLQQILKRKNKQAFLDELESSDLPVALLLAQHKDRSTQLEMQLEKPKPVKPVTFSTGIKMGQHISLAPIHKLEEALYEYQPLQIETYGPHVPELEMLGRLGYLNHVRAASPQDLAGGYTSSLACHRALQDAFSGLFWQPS
T5 sequence (P50613 whole entry): as the sequence (P50613 whole entry) above

Structure (SMILES) | CDK1/CDK7: Selectivity of CDK7 inhibition over CDK1 inhibition (CDK1) | IC50 (CDK1) [nM] | CDK2/CDK7: Selectivity of CDK7 inhibition over CDK2 inhibition (CDK2) | IC50 (CDK2) [nM] | CDK5/CDK7: Selectivity of CDK7 inhibition over CDK5 inhibition (CDK5) | IC50 (CDK5) [nM] | IC50 (CDK7/CycH/MNAT1) [nM] | DC50 (CDK7 protein) [nM] | Compound concentration that caused 50% CDK7 protein degradation in A2780 cells (DC50, nM) (CDK7 protein)
Cc1cc([C@@H](C(=O)N2C[C@H](O)C[C@H]2C(=O)NCc2ccc(-c3scnc3C)cc2OCCOCCOCCNc2ccc3c(-c4ccccc4CNc4nc(O[C@@H]5CCCNC5)nc5c(C(C)C)cnn45)nccc3c2)C(C)C)on1 [Compound 26] | A (A indicates [fold] > 500) | > 1000 | A (A indicates [fold] > 500) | > 1000 | A (A indicates [fold] > 500) | > 1000 | ≤ 100 | > 1000 | –
CC(C)c1cnn2c(NCc3ccccc3-c3nccc4cc(N5CCN(CC6CCN(c7ccc8c(c7)C(=O)N(C7CCC(=O)NC7=O)C8=O)CC6)CC5)ccc34)nc(O[C@@H]3CCCNC3)nc12 (stereo partly drawn) [Compound 33] | A (A indicates [fold] > 500) | > 1000 | A (A indicates [fold] > 500) | > 1000 | B (B indicates 50 < [fold] ≤ 500) | > 1000 | ≤ 100 | ≤ 100 | –
CC(C)c1cnn2c(NCc3ccccc3-c3nccc4cc(NCCOCCOCCNC(=O)CNc5cccc6c5C(=O)N(C5CCC(=O)NC5=O)C6=O)ccc34)nc(O[C@@H]3CCCNC3)nc12 (stereo partly drawn) [Compound 7] | A (A indicates [fold] > 500) | > 1000 | A (A indicates [fold] > 500) | > 1000 | A (A indicates [fold] > 500) | > 1000 | ≤ 100 | 100 to 1000 | B or A
CC(C)c1cnn2c(NCc3ccccc3-c3nccc4cc(NC(=O)COCCOCCOCCNC(=O)CNc5cccc6c5C(=O)N(C5CCC(=O)NC5=O)C6=O)ccc34)nc(O[C@@H]3CCCNC3)nc12 (stereo partly drawn) [Compound 9] | A (A indicates [fold] > 500) | > 1000 | A (A indicates [fold] > 500) | > 1000 | A (A indicates [fold] > 500) | > 1000 | ≤ 100 | – | B or A
Cc1ncsc1-c1ccc(CNC(=O)[C@@H]2C[C@@H](O)CN2C(=O)[C@@H](NC(=O)CCOCCOCCNc2ccc3c(-c4ccccc4CNc4nc(O[C@@H]5CCCNC5)nc5c(C(C)C)cnn45)nccc3c2)C(C)(C)C)cc1 [Compound 15] | A (A indicates [fold] > 500) | > 1000 | A (A indicates [fold] > 500) | > 1000 | A (A indicates [fold] > 500) | > 1000 | ≤ 100 | ≤ 100 | –
CC(C)c1cnn2c(NCc3ccccc3-c3nccc4cc(NCC5CCN(CC6CCN(c7ccc8c(c7)C(=O)N(C7CCC(=O)NC7=O)C8=O)CC6)CC5)ccc34)nc(O[C@@H]3CCCNC3)nc12 (stereo partly drawn) [Compound 30] | A (A indicates [fold] > 500) | > 1000 | B (B indicates 50 < [fold] ≤ 500) | > 1000 | B (B indicates 50 < [fold] ≤ 500) | > 1000 | ≤ 100 | ≤ 100 | –
CC(C)C[C@H](NC(=O)[C@@H](O)[C@H](N)Cc1ccccc1)C(=O)NCCOCCOCCNc1ccc2c(-c3ccccc3CNc3nc(O[C@@H]4CCCNC4)nc4c(C(C)C)cnn34)nccc2c1 [Compound 13] | A (A indicates [fold] > 500) | > 1000 | A (A indicates [fold] > 500) | > 1000 | A (A indicates [fold] > 500) | > 1000 | ≤ 100 | > 1000 | –
Cc1ncsc1-c1ccc([C@H](C)NC(=O)[C@@H]2C[C@@H](O)CN2C(=O)[C@@H](NC(=O)CCOCCOCCNc2ccc3c(-c4ccccc4CNc4nc(O[C@@H]5CCCNC5)nc5c(C(C)C)cnn45)nccc3c2)C(C)(C)C)cc1 [Compound 17] | A (A indicates [fold] > 500) | > 1000 | A (A indicates [fold] > 500) | > 1000 | A (A indicates [fold] > 500) | > 1000 | ≤ 100 | ≤ 100 | –
Cc1ncsc1-c1ccc(CNC(=O)[C@@H]2C[C@@H](O)CN2C(=O)[C@@H](NC(=O)C2(F)CC2)C(C)(C)C)c(OCCCCCCCCNc2ccc3c(-c4ccccc4CNc4nc(O[C@@H]5CCCNC5)nc5c(C(C)C)cnn45)nccc3c2)c1 [Compound 22] | A (A indicates [fold] > 500) | > 1000 | A (A indicates [fold] > 500) | > 1000 | B (B indicates 50 < [fold] ≤ 500) | > 1000 | 100 to 1000 | 100 to 1000 | B or A
CC(C)c1cnn2c(NCc3ccccc3-c3nccc4cc(N5CCC(CN6CCN(c7ccc8c(c7)C(=O)N(C7CCC(=O)NC7=O)C8=O)CC6)CC5)ccc34)nc(O[C@@H]3CCCNC3)nc12 (stereo partly drawn) [Compound 34] | A (A indicates [fold] > 500) | > 1000 | A (A indicates [fold] > 500) | > 1000 | A (A indicates [fold] > 500) | > 1000 | ≤ 100 | ≤ 100 | –
Cc1ncsc1-c1ccc(CNC(=O)[C@@H]2C[C@@H](O)CN2C(=O)[C@@H](NC(=O)C2(F)CC2)C(C)(C)C)c(OCCOCCOCCNc2ccc3c(-c4ccccc4CNc4nc(O[C@@H]5CCCNC5)nc5c(C(C)C)cnn45)nccc3c2)c1 [Compound 11] | A (A indicates [fold] > 500) | > 1000 | A (A indicates [fold] > 500) | > 1000 | A (A indicates [fold] > 500) | > 1000 | ≤ 100 | ≤ 100 | –
